From patent US9944660B2, “Tricyclic benzoxaboroles as antibacterial agents” (Daiichi Sankyo Company, Limited, priority 2014, dated 2018)
Read-outs that look alike come from different tables or passages of the source.

Experiments:
P. aeruginosa LRS = molecular target: T1, P. aeruginosa LRS (Pseudomonas aeruginosa, UniProt Q9HX33); experiment: Leucine tRNA synthetase (LRS) enzyme inhibition assay; type: biochemical; conditions: 3H leucine incorporation
T1 construct: made in house
Procedure: (§1) (Test Example 1) Leucine tRNA Synthetase (LRS) Enzyme Inhibition Assay [IC50]
(§2) E. coli and P. aeruginosa LRS enzymes were cloned, expressed and purified in-house. The IC50 values were determined by using following assay protocol.
(§3) Test compounds were diluted in milli-Q water. 5 μL (microliter) of test compound dilution was mixed with 20 μL of reaction mixture consisting of 100 millimolar Tris (Trizma base from Sigma), 120 millimolar potassium chloride (Sigma), […] magnesium chloride (Sigma), 50 millimolar dithiothreitol, 50 mg/mL E. coli tRNA (Roche), 150 micromolar leucine (Sigma), 0.5 microcurie of ^3H Leucine (Amersham) and 20 μL of appropriate dilution of LRS enzyme, incubate in shaker at about 30° C. for 20 minutes. The reaction was started by adding 5 μL of 40 millimolar ATP (Sigma) and incubated on shaker at the same temperature further for 20 minutes. The reaction was quenched with 150 μL ice cold trichloroacetic acid (10%). The content of each well was transferred to 96 well GF/C plates (from Pall), and washed with 150 μL of trichloroacetic acid (5%) using vacuum manifold (from Pall). Plates were dried and read using Microbeta Wallac liquid scintillation counters after adding 100 μL of scintillation cocktail (Perkin Elmer's OptiPhase ‘SuperMix’) to each well. IC50 was calculated with respect to enzyme control after subtracting background (No enzyme control) using Graph Pad Prism software.

E. coli LRS = molecular target: T2, E. coli LRS (Escherichia coli, UniProt P07813); experiment: as above; type: biochemical
T2 construct: made in house
T2 sequence (P07813 whole entry): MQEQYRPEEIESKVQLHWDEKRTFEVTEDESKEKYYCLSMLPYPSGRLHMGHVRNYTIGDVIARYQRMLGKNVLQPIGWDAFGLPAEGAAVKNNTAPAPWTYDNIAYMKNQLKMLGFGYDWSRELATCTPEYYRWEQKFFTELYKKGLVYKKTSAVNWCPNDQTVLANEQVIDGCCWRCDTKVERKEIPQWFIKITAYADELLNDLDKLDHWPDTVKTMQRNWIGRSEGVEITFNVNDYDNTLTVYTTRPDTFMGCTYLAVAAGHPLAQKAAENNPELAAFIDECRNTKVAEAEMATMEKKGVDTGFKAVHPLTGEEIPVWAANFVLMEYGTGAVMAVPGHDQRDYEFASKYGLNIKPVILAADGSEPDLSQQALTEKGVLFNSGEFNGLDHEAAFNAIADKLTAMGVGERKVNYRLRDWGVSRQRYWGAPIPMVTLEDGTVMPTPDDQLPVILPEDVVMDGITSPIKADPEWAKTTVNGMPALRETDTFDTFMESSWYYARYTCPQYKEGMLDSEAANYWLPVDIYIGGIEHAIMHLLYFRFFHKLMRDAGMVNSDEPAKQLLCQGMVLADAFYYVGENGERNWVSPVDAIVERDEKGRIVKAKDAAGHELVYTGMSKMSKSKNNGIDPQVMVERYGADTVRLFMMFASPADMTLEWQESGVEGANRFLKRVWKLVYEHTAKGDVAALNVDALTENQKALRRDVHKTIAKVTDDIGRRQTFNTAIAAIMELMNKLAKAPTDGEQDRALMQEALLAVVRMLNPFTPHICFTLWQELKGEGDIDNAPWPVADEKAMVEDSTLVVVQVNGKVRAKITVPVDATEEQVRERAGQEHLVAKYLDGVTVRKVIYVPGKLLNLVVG
Procedure: as §1, §2, §3

P. aeruginosa PAO1 = experiment: In vivo efficacy in urinary tract infection (UTI) ascending model; set-up: species or system Mouse; conditions: 60 mg/kg body weight twice daily for 3 days, 4th day of infection
Procedure: (Test Example 3a) In Vivo Efficacy in Urinary Tract Infection (UTI) Model Mouse P. aeruginosa UTI ascending model was used. All animals were infected with P. aeruginosa PAO1 by intra-urethral route. Randomization was done 18 hours post infection before starting treatment. Therapy was initiated 18 hours post infection. Animals were treated with 30 mg/kg and 60 mg/kg body weight of test compounds twice daily for 3 days. Animals were sacrificed and cfu loads in kidney and bladder were detected by serial dilution platting on drug free TSA plates on day 4.

E. coli ATCC 25922 [1] = experiment: MICs in Muller Hinton Broth and pooled human urine; type: cell-based; conditions: Escherichia coli, ATCC25922
Procedure: (§4) In short, bacterial cultures were streaked on Muller Hinton Agar plates and incubated at 35±2° C. for about 18 to 20 hours. Following day colony suspension was prepared in saline and adjusted to 0.5 McFarland using Densitometer. This culture was further diluted 100 fold in Muller Hinton Broth or M9 minimal media or pooled human urine and used for MIC determination. The test compounds were prepared in dimthylesulfoxide (DMSO) at concentration of 1 mg/mL, and diluted to 32 μg/mL in respective media. Further two fold serial dilution were prepared in 96 well microtiter plates. 50 μL of diluted cultures were added to all wells and incubated at 35±2° C. for about 16 to 20 hours.
(Test Example 4) MICs in Human Urine Against E. coli and K. pneumonia
Many antibacterial compounds like fluroquinolones loose activity in human urine at acidic pH (acidic urine promotes rigorous bacterial growth). MICs were performed using CLSI guidelines (2011) against E. coli 25922 in Muller Hinton Broth (MHB) and pooled human urine.

P. aeruginosa PAO-1 = experiment: In vivo efficacy in P. aeruginosa PAO1 murine lung infection model; conditions: subcutaneous 75 mg/kg twice daily
Procedure: (Test Example 3c) In Vivo Efficacy in P. aeruginosa PAO1 Murine Lung Infection Model Overnight grown culture of P. aeruginosa PAO-1 on TSA agar was inoculated in Brain heart infusion broth (BHI, DIFCO) and grown in a shaker incubator with shaking at 110 rpm at 35±2° C. overnight. The culture was subcultured in 50 mL of BHI and incubated again at 110 rpm at 35±2° C. on a shaker incubator till the optical density of the culture reaches 0.5-0.7 units. For infection, animals were weighed, randomized and anesthetized by giving isofluorane. Under anesthesia the animals were infected with 50 μL of the inoculum prepared as above by intranasal route. The test compounds were administered at 75 mg/kg body weight by subcutaneous route after 1 hour and 6 hours post infection. Animals were euthanized, lungs were removed aseptically and homogenized in PBS (3 mL) and serial dilutions plated on TSA plates 24 hours post infection.

K. pneumoniae ATCC 13883 = experiment: Bacterial susceptibility testing (MIC, CLSI microdilution); type: cell-based; conditions: Klebsiella pneumoniae, ATCC13883
Procedure: (§5) (Test Example 2) Method of Testing Susceptibility of Bacterial [MICs]
(§6) Minimum inhibitory concentration (MIC) were determined as recommended by the Clinical and Laboratory Standards Institute (CLSI) in 2010 (M100-520), in 2011 (M100-521), 2012 (M100-522) and in 2013 (M100-523) with minor modifications.
as §4

P. aeruginosa = experiment: as above; type: cell-based; conditions: Pseudomonas aeruginosa, strain not stated, read-out: MIC against P. aeruginosa
Procedure: as §5, §6, §4

E. coli ATCC 25922 [2] = experiment: as above; type: cell-based; conditions: Escherichia coli, ATCC25922
Procedure: as §5, §6, §4

[3] = system: P. aeruginosa PAO1 (parent, MexAB del, MexAB over expression); experiment: MICs against Pseudomonas efflux pump mutants; type: cell-based
Procedure: as §4
(Test Example 5) MICs Against Pseudomonas Efflux Pump Mutants
Multidrug-resistant (MDR) P. aeruginosa isolated from nosocomial infections in intensive care units (ICUs) are often related to altered regulation of the specific efflux pumps and porins in P. aeruginosa strains. Tested compounds that show similar activity against efflux pump overproducers and lab strains can be predictive of activity in nosocomial patients infected with MDR strains. To identify such compounds we have determined MICs against P. aeruginosa PAO1 against Efflux deleted and overproducer strains.

E. coli GK00432 = experiment: In vivo efficacy in E. coli murine neutropenic thigh infection model; set-up: species or system Swiss albino mice; conditions: subcutaneous
Procedure: (Test Example 3b) In Vivo Efficacy in E. coli Murine Neutropenic Thigh Infection Model
Efficacy of test compounds were evaluated by subcutaneous (SC) route against E. coli GK00432 in neutropenic mouse thigh infection model. Study was performed in Swiss albino mice of either sex weighing 20±2 g. Neutropenia was induced by intraperitoneal injections of cyclophosphamide given twice prior to infection (150 mg/kg, at 4 days prior to infection, and 100 mg/kg, at 1 day prior to infection). E. coli inoculum (0.1 mL) was injected intra-muscularly in the thigh muscle. After 2 hours, test compound at a dose of 30 mg/kg and 60 mg/kg body weight were administered by subcutaneous route and one group of mice (n=5) was sacrificed to evaluate total live bacterial count per thigh as baseline bacterial loads. Remaining three doses of test compound were administered by subcutaneous route after […] hours of the infection. Animals were euthanized, thigh muscles were removed aseptically and homogenized in phosphate buffered saline (3 mL) and serial dilutions plated Tryptone Soya Agar plates 26 hours post infection.

[4] = Muller Hinton Broth, read-out: E. coli ATCC 25922 MIC (μg/mL) MHB
[5] = pooled human urine pH 5.5, read-out: E. coli ATCC 25922 MIC (μg/mL) Urine pH 5.5
[6] = PAO1, read-out: MIC (μg/mL) P. aeruginosa PAO1 MexAB del
[7] = PAO1, read-out: MIC (μg/mL) P. aeruginosa PAO1 MexAB over expression
[8] = PAO1, read-out: MIC (μg/mL) P. aeruginosa PAO1 Parent

T1 sequence (Q9HX33 whole entry): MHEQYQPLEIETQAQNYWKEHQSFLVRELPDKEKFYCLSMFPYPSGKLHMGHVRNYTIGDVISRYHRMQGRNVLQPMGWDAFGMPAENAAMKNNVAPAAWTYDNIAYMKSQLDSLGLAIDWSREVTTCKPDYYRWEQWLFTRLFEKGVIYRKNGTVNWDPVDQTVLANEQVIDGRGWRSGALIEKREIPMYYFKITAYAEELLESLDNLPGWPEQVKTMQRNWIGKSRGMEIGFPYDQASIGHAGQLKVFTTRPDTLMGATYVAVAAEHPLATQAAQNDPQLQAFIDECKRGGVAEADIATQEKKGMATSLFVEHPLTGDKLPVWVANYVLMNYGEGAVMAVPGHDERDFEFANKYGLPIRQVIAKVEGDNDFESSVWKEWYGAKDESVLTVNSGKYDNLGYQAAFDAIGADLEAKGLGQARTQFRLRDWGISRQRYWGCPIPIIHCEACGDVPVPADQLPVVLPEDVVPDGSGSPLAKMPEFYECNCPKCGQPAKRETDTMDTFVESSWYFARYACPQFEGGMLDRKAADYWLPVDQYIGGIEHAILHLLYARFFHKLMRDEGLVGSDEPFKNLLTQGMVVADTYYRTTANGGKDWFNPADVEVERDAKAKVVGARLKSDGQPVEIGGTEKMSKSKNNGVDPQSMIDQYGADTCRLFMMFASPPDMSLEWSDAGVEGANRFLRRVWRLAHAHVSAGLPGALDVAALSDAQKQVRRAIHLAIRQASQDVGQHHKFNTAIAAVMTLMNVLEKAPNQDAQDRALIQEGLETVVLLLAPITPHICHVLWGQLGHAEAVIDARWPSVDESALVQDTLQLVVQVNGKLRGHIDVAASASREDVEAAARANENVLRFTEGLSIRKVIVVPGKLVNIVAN

Row | Structure (SMILES) | IC50 (P. aeruginosa LRS) | IC50 (E. coli LRS) | log reduction from the untreated control in bladder counts (P. aeruginosa PAO1; bladder) | log reduction from the untreated control in kidney counts (P. aeruginosa PAO1; kidney) | MIC (E. coli ATCC 25922 [1]; [4]) | MIC (E. coli ATCC 25922 [1]; [5]) | log reduction in cfu from 24 hours untreated control (P. aeruginosa PAO-1) | log reduction in cfu's from baseline (P. aeruginosa PAO-1) | MIC (K. pneumoniae ATCC 13883) | MIC (P. aeruginosa) | MIC (E. coli ATCC 25922 [2]) | MIC [3, 6] | MIC [3, 7] | MIC [3, 8] | log reduction in colony forming units (cfu) from 26 hours untreated control (E. coli GK00432; 30 mg/kg four times daily (QID)) | log reduction in colony forming units (cfu) from 26 hours untreated control (E. coli GK00432; 60 mg/kg four times daily (QID))
1 | Cl.NC[C@H]1OB(O)c2ccc3c(c21)OCO3 (single isomer, unassigned) [Compound 6, hydrochloride] | < 0.12 µM | < 120 nM |  |  |  |  |  |  |  |  |  |  |  |  |  | 
2 | Cl.NC[C@H]1OB(O)c2c1ccc1c2OCO1 (single isomer, unassigned) [Compound 10, hydrochloride] | 0.62 µM | 380 nM |  |  |  |  |  |  |  |  |  |  |  |  |  | 
3 | Cl.NC[C@H]1OB(O)c2c1ccc1c2OCO1 (single isomer, unassigned) [Compound 10] |  |  | 3.83 log | 4.18 log | 2 µg/mL | 4 µg/mL | 3.53 log | 2.07 log | 0.5 µg/mL | 1 µg/mL | 2 µg/mL | 1 µg/mL | 1 µg/mL | 1 µg/mL |  | 
4 | Cl.NCC1OB(O)c2cc3c(cc21)OCO3 (stereo not shown) [Compound 1, 3-(aminomethyl)[1,3]dioxolo[4,5-f][2,1]benzoxaborol-1(3H)-ol hydrochloride] | > 10 µM | 1400 nM |  |  |  |  |  |  | 4 µg/mL |  | 4 µg/mL |  |  |  |  | 
5 | Cl.NCC1OB(O)c2cc3c(cc21)OCCO3 (stereo not shown) [Compound 2, 3-(aminomethyl)-6,7-dihydro[1,2]oxaborolo[3,4-g][1,4]benzodioxin-1(3H)-ol hydrochloride] | > 10 µM | 3350 nM |  |  |  |  |  |  | 8 µg/mL |  | 4 µg/mL |  |  |  |  | 
6 | Cl.NCC1OB(O)c2c1ccc1c2CCC1 (stereo not shown) [Compound 3, 3-(aminomethyl)-3,6,7,8-tetrahydro-1H-indeno[4,5-c][1,2]oxaborol-1-ol hydrochloride] | 2.2 µM | 2500 nM |  |  |  |  |  |  | 1 µg/mL |  | 1 µg/mL |  |  |  |  | 
7 | Cl.NCC1OB(O)c2c1ccc1c2CCCC1 (stereo not shown) [Compound 4, 3-(Aminomethyl)-6,7,8,9-tetrahydronaphtho[1,2-c][1,2]oxaborol-1(3H)-ol hydrochloride] | 9.5 µM | 4500 nM |  |  |  |  |  |  | 16 µg/mL |  | 8 µg/mL |  |  |  |  | 
8 | Cl.NCC1OB(O)c2ccc3c(c21)OCO3 (stereo not shown) [Compound 5, 8-(aminomethyl)[1,3]dioxolo[4,5-e][2,1]benzoxaborol-6(8H)-ol hydrochloride] | 2.3 µM | 800 nM |  |  | 2 µg/mL | 4 µg/mL |  |  | 1 µg/mL | 8 µg/mL | 1 µg/mL | 4 µg/mL | 8 µg/mL | 4 µg/mL | 3.1 log | 3.8 log
9 | Cl.NCC1OB(O)c2ccc3c(c21)OCCO3 (stereo not shown) [Compound 7, 9-(aminomethyl)-2,3-dihydro[1,2]oxaborolo[4,3-f][1,4]benzodioxin-7(9H)-ol hydrochloride] | 0.6 µM | 800 nM |  |  |  |  |  |  | 16 µg/mL |  | 8 µg/mL |  |  |  |  | 
10 | Cl.NCC1OB(O)c2c1ccc1c2OCCO1 (stereo not shown) [Compound 8, 3-(aminomethyl)-7,8-dihydro[1,2]oxaborolo[3,4-f][1,4]benzodioxin-1(3H)-ol hydrochloride] | 3.2 µM | 2100 nM |  |  | 8 µg/mL | 16 µg/mL |  |  | 4 µg/mL | 4 µg/mL | 4 µg/mL | 4 µg/mL | 4 µg/mL | 2 µg/mL |  | 
11 | Cl.NCC1OB(O)c2c1ccc1c2OCO1 (stereo not shown) [Compound 9, 3-(aminomethyl)[1,3]dioxolo[4,5-g][2,1]benzoxaborol-1(3H)-ol; hydrochloride] | 2.7 µM | 1700 nM |  |  | 8 µg/mL | 8 µg/mL |  |  | 2 µg/mL | 2 µg/mL | 2 µg/mL | 2 µg/mL | 4 µg/mL | 2 µg/mL |  | 
12 | Cl.NCC1OB(O)c2cc3c(cc21)CCO3 (stereo not shown) [Compound 11, 3-(aminomethyl)-5,6-dihydrofuro[3,2-f][2,1]benzoxaborol-1(3H)-ol hydrochloride] | > 10 µM | 2900 nM |  |  |  |  |  |  | 4 µg/mL |  | 4 µg/mL |  |  |  |  | 
13 | Cl.NCC1OB(O)c2cc3c(cc21)OCC3 (stereo not shown) [Compound 12, 3-(aminomethyl)-6,7-dihydrofuro[2,3-f][2,1]benzoxaborol-1(3H)-ol hydrochloride] | > 10 µM | 2800 nM |  |  |  |  |  |  | 16 µg/mL |  | 8 µg/mL |  |  |  |  | 
